The values below are quoted from earlier work in patent US20230235017A1, “A DRUG SCREENING PLATFORM FOR ENDOSOMAL ENHANCERS TO TREAT ALZHEIMER'S DISEASE” (Aarhus Universitet, priority 2020, published 2023).

The test system of the series is endosomal activity. As to conditions: shown in the literature (Mecozzi 2014); cited from earlier work.

SMILES strings stand for the structures.

With `N=C(N)SCc1ccc(CSC(=N)N)s1` [R55], the “effect on endosomal activity” value was “have an effect on endosomal activity”.
